For one assay, the target named is 5-HT reuptake (Rattus norvegicus, UniProt P31652). The experiment in a line: biochemical. Conditions: for inhibition at 10 µM: read-out: Inhibition of 5-HT reuptake (% inhibition at 10 μmol./l), 10 μmol./l. The source says:
In order to be able to carry out these in vitro studies, synaptosomes were freshly isolated from areas of rat brain. […] For NA reuptake, these vesicular particles were isolated from the hypothalamus of male rat brains, and for 5HT reuptake, they were isolated from the medulla+pons region.
The IC50 values were obtained with the aid of the “Figure P” computer program (Version 6.0, Biosoft, Cambridge, England). […] The “Ligand” computer program (Version 4, Biosoft, England) was used to show KD values.

A further assay deals with T1, human μ-opiate receptor (Homo sapiens, UniProt P35372).
T1 construct: purchased Perkin Elmer, Zaventem, Belgium RB-HOM; host or cells: CHO-K1 cells
The experiment in a line: Affinity for the human μ-opiate receptor, [3H]-naloxone displacement (SPA) on CHO-K1 receptor membrane preparation. It is filed as binding. Conditions: for inhibition at 1 µM: 1.5 h, read-out: μ-Opioid receptor affinity (% inhibition at 1 μmol./l), 1 μmol./l test substance; for inhibition at 1 µM / μ-Opioid receptor affinity (% inhibition at 1 μmol./l): inhibition of specific [3H]-naloxone binding; for μ-Opioid receptor affinity (% inhibition at 1 μmol./l): 1 μmol./l test substance. The method, then: The receptor affinity for the human μ-opiate receptor was determined in a homogeneous batch on microtitre plates. To that end, serial dilutions of the substances to be tested were incubated for 90 minutes at room temperature with a receptor membrane preparation (15-40 μg of protein/250 μl of incubation batch) of CHO-K1 cells, which express the human μ-opiate receptor (RB-HOM receptor membrane preparation from Perkin Elmer, Zaventem, Belgium), in the presence of 1 nmol./l of the radioactive ligand [^3H]-naloxone (NET719, Perkin Elmer, Zaventem, Belgium) and 1 mg of WGA-SPA beads (wheatgerm agglutinin SPA beads from Amersham/Pharmacia, Freiburg, Germany) in a total volume of 250 μl. The incubation buffer used was 50 mmol./l of Tris-HCl supplemented with 50 μM MgCl2 and 0.05% bovine serum albumin. In order to determine non-specific binding, 100 μmol./l of naloxone were additionally added. When the ninety-minute incubation time was complete, the microtitre plates were centrifuged off for 20 minutes at 1000 g and the radioactivity was measured in a β-counter (Microbeta-Trilux, PerkinElmer, Freiburg, Germany). The percentage displacement of the radioactive ligand from its binding to the human μ-opiate receptor at a concentration of the test substances of 1 μmol./l was determined and stated as the percentage inhibition of specific binding. […] Ki values for the test substances were obtained by conversion by means of the Cheng-Prusoff equation (Cheng and Prusoff 1973).

The target in a further assay is T2, NA reuptake (Rattus norvegicus, UniProt Q63380).
T2 construct: isolated from the hypothalamus of male rat brains; from tissue; host or cells: rat brain synaptosomes (P2 fraction), hypothalamus of male rats
Nature of the assay: Inhibition of NA reuptake in rat brain synaptosomes (hypothalamus, P2 fraction). Conditions: for inhibition at 10 µM: 10 μmol./l. It is filed as biochemical. The method, then: In order to be able to carry out these in vitro studies, synaptosomes were freshly isolated from areas of rat brain. A so-called “P2” fraction was used in each case, which was prepared exactly according to the procedure of Gray, E. G. and Whittaker, V. P. (1962, J. Anat. […], 79-88). For NA reuptake, these vesicular particles were isolated from the hypothalamus of male rat brains, and for 5HT reuptake, they were isolated from the medulla+pons region.
IC50 values were obtained thereby which can be converted into inhibitor constants (Ki) according to the “Cheng-Prusoff equation” (Cheng, Y. C. and Prusoff, W. H., 1973, Biochem. Pharmacol. 22, 3099-3108). The IC50 values were obtained with the aid of the “Figure P” computer program (Version 6.0, Biosoft, Cambridge, England). Km values were calculated according to Lineweaver, H. and Burk, D. (1934, J. Am. Chem. Soc. 56, 658-666). The “Ligand” computer program (Version 4, Biosoft, England) was used to show KD values.

A further assay has as its system rat. The experiment in a line: Formalin test in the rat (phase 2, chronic pain component). It is filed as in vivo. Conditions: for Inhibition of the nociceptive behaviour versus control (% inhibition): phase 2. The method, then:
The formalin test (Dubuisson, D. and Dennis, S. G., 1977, Pain, 4, 161-174) represents a model for acute and chronic pain. By means of a single formalin injection into the dorsal side of a rear paw, a biphase nociceptive reaction was induced in freely mobile test animals; the reaction was assessed by observing three behaviour patterns which are clearly distinguishable from one another. The reaction is two-phase: phase 1=immediate reaction (duration up to 10 minutes; shaking of the paw, licking), phase 2=late reaction (after a rest phase; likewise shaking of the paw, licking; duration up to 60 minutes). The first phase reflects a direct stimulation of the peripheral nocisensors with a high spinal nociceptive input or glutamate release (acute pain phase); the second phase reflects a spinal and peripheral hypersensitisation (chronic pain phase). In the studies presented here, the chronic pain component (phase 2) was evaluated.
Formalin was administered subcutaneously in a volume of 50 μl and a concentration of 5% into the dorsal side of the right rear paw of each animal. The specific behavioural changes, such as lifting and shaking of the paw, weight shifting of the animal and biting and licking reactions, were observed and recorded over an observation period of from 21 to 27 minutes after the formalin injection. The various behaviours were combined to give the so-called pain rate (PR) which, based on 3-minute intervals, represents the calculation of a mean nociceptive reaction. The PR was calculated on the basis of a numerical weighting (=in each case factor 1, 2, 3) of the observed behaviours (corresponding to behaviour score 1, 2, 3) and was calculated using the following formula:
The size of the group was 10 animals (n=10).
On the basis of the PR calculations, the activity of the substance was determined in percent as the change relative to a control. The ED50 was determined by means of regression analysis.

[1] abbreviates: rat synaptosomes, Cheng-Prusoff.
Where [2] appears, read: Cheng-Prusoff from IC50, [3H]-naloxone 1 nmol./l, read-out: μ-Opioid receptor affinity, Ki.

The term Ki denotes a measure of affinity in units of concentration, obtained from inhibition or displacement.

Like-named read-outs stand apart in the source and are kept apart here.

T2 sequence (Q63380 1-617): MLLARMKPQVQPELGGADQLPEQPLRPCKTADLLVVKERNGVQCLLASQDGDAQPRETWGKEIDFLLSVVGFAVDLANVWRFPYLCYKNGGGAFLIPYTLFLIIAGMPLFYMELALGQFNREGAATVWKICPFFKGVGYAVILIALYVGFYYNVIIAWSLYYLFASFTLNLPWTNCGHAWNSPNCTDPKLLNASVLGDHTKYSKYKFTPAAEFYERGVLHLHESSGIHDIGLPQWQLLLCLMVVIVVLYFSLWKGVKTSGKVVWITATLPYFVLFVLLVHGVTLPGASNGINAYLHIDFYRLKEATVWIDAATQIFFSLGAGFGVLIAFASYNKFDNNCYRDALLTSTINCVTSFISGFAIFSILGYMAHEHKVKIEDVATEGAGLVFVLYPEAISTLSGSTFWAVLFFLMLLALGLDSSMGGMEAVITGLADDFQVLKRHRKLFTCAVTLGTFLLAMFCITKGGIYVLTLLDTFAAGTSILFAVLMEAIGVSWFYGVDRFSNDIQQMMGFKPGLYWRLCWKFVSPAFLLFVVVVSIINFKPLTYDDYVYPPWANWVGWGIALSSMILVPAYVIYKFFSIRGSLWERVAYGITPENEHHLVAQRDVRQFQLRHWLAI
5-HT reuptake, sequence (P31652 whole entry): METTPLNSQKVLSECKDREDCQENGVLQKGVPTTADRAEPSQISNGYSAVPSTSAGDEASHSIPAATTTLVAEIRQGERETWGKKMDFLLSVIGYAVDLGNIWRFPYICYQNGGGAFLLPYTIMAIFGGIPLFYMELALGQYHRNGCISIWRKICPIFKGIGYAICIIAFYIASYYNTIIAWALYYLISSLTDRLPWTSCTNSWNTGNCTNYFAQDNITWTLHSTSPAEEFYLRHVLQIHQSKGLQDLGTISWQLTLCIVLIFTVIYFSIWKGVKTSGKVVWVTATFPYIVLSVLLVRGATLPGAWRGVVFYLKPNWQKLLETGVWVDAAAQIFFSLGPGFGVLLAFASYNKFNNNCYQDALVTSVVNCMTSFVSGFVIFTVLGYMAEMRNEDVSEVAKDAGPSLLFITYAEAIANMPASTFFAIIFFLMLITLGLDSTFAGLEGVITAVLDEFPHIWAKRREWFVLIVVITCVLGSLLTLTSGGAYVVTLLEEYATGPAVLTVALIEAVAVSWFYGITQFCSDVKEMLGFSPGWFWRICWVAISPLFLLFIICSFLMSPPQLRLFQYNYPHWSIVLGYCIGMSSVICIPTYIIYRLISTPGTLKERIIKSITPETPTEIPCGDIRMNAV
T1 sequence (P35372 whole entry): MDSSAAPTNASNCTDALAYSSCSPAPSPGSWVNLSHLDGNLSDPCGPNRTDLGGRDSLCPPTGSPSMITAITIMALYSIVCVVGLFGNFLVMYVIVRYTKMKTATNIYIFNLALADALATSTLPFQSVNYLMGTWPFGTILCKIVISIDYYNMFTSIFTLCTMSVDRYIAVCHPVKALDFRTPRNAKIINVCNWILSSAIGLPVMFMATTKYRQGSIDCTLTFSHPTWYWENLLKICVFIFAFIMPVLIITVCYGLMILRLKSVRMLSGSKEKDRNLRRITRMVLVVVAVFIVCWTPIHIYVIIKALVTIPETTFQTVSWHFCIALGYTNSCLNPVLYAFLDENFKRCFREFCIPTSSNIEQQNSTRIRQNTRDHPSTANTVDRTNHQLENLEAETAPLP

For `CN(C)CC1Cc2cc(C(F)(F)F)ccc2C1(O)c1cccnc1` (stereo not drawn) [Example 22, 2-dimethylaminomethyl-1-pyridin-3-yl-5-trifluoromethyl-indan-1-ol], the inhibition at 10 µM worked out at 61% at 5-HT reuptake (rat synaptosomes) and 17% against NA reuptake. Also, at human μ-opiate receptor, the inhibition at 1 µM was 2%.
For the molecule `CN(C)CC1CCc2ccccc2C1(O)c1cccnc1` (stereo not drawn) [Example 8, 2-dimethylaminomethyl-1-pyridin-3-yl-1,2,3,4-tetrahydro-naphthalen-1-ol], in the assay on rat (46.4 mg/kg i.v.), the “Inhibition of the nociceptive behaviour versus control (% inhibition)” value was −65.8%.
`CNCC[C@H](Oc1cccc2ccccc12)c1cccs1` [Duloxetin, duloxetin, reference compound]: the “Inhibition of the nociceptive behaviour versus control, ED50 value” in the assay on rat (i.v., phase 2, regression analysis) is recorded as 1.43 mg/kg. Further, the “μ-Opioid receptor affinity (% inhibition at 1 μmol./l)” value at human μ-opiate receptor was −10%.
In the case of `COc1cccc2c1CCC(CN(C)C)=C2c1cccnc1` [Example 38, (5-methoxy-1-pyridin-3-yl-3,4-dihydro-naphthalen-2-ylmethyl)-dimethyl-amine], the Ki on 5-HT reuptake (setting [1]) came to 0.37 µM; at human μ-opiate receptor (setting [2]) it was 0.46 µM. Moreover, on NA reuptake, the inhibition at 10 µM worked out at 34%.
With `CN(C)CC1CCS(=O)(=O)c2ccccc2C1(O)c1cccnc1` (stereo not drawn) [Example 17, 4-dimethylaminomethyl-1,1-dioxo-5-pyridin-3-yl-2,3,4,5-tetrahydro-1H-1λ6-benzo[b]thiepin-5-ol], the figures for the inhibition at 10 µM on 5-HT reuptake (rat synaptosomes) and at NA reuptake were 57% and 19%, respectively. Further, the inhibition at 1 µM at human μ-opiate receptor was -13%.
Take `COc1ccc2c(c1)CC(CN(C)C)C2(O)c1cccnc1` (stereo not drawn) [Example 5, 2-dimethylaminomethyl-5-methoxy-1-pyridin-3-yl-indan-1-ol]: in the assay on rat (21.5 mg/kg i.v.), the “Inhibition of the nociceptive behaviour versus control (% inhibition)” value is −43.0%. Also, the Ki on 5-HT reuptake (setting [1]) was determined as 0.17 µM. Further, at human μ-opiate receptor, the inhibition at 1 µM worked out at 49%. Moreover, at NA reuptake, the inhibition at 10 µM is 29%.
As to `CN(C)CC1=C(c2cccnc2)c2ccc(F)cc2C1` [Example 19, (6-fluoro-3-pyridin-3-yl-1H-inden-2-ylmethyl)-dimethyl-amine], the Ki on 5-HT reuptake (setting [1]) is 0.043 µM; at human μ-opiate receptor, 0.29 µM. On NA reuptake, the inhibition at 10 µM was found to be 31%.
For the molecule `COc1cccc2c1CCC(CN(C)C)C2(O)c1cccnc1` (stereo not drawn) [Example 36, 2-dimethylaminomethyl-5-methoxy-1-pyridin-3-yl-1,2,3,4-tetrahydro-naphthalen-1-ol], the inhibition at 10 µM was 33% on 5-HT reuptake (rat synaptosomes) and 49% against NA reuptake. Also, on human μ-opiate receptor, the “μ-Opioid receptor affinity (% inhibition at 1 μmol./l)” value is reported as −14%.
As to `CN(C)CC1Cc2ccccc2C1(O)c1cccnc1` (single isomer, unassigned) [Example 1, 2-dimethylaminomethyl-1-pyridin-3-yl-indan-1-ol], the “Inhibition of 5-HT reuptake (% inhibition at 10 μmol./l)” value at 5-HT reuptake (rat synaptosomes) came to 63%. Also, the “μ-Opioid receptor affinity (% inhibition at 1 μmol./l)” value on human μ-opiate receptor is given as 1%. The inhibition at 10 µM at NA reuptake amounted to 33%.
Regarding `CN(C)CC1CCOc2ccccc2C1(O)c1cccnc1` (stereo not drawn) [Example 24, 4-dimethylaminomethyl-5-pyridin-3-yl-2,3,4,5-tetrahydro-benzo[b]oxepin-5-ol], the figures for the inhibition at 10 µM on 5-HT reuptake (rat synaptosomes) and against NA reuptake were 12% and 9%, respectively. Further, the inhibition at 1 µM at human μ-opiate receptor came to 45%.
In the same order, the values of `CN(C)CC1Cc2cc(OC(F)(F)F)ccc2C1(O)c1cccnc1` (stereo not drawn) [Example 20, 2-dimethylaminomethyl-1-pyridin-3-yl-5-trifluoromethoxy-indan-1-ol] are 71%, 38% and -19%.
For the molecule `CN(C)CC1=C(c2cccnc2)c2ccc(C(F)(F)F)cc2C1` [Example 23, dimethyl-(3-pyridin-3-yl-6-trifluoromethyl-1H-inden-2-ylmethyl)-amine], the inhibition at 10 µM was found to be 47% on 5-HT reuptake (rat synaptosomes) and 6% on NA reuptake. Moreover, the inhibition at 1 µM at human μ-opiate receptor was -8%.
For the molecule `CN(C)CC1=C(c2cccnc2)c2ccccc2[S+]([O-])CC1` (stereo not drawn) [Example 16, dimethyl-(1-oxo-5-pyridin-3-yl-2,3-dihydro-1H-1λ4-benzo[b]thiepin-4-ylmethyl)-amine], the figures for the inhibition at 10 µM at 5-HT reuptake (rat synaptosomes) and against NA reuptake were 35% and -2%, respectively. For the same molecule, on human μ-opiate receptor (setting [2]), the Ki was determined as 0.21 µM.
In turn, `CN(C)CC1CCCc2ccccc2C1(O)c1cccnc1` (stereo not drawn) [Example 11, 6-dimethylaminomethyl-5-pyridin-3-yl-6,7,8,9-tetrahydro-5H-benzocyclohepten-5-ol] had a Ki on 5-HT reuptake of 0.028 µM. The inhibition at 1 µM on human μ-opiate receptor was 20%. The inhibition at 10 µM against NA reuptake worked out at 39%.
The molecule `CN(C)CC1=C(c2cccnc2)c2ccc(OC(F)(F)F)cc2C1` [Example 21, dimethyl-(3-pyridin-3-yl-6-trifluoromethoxy-1H-inden-2-ylmethyl)-amine] yielded a Ki on 5-HT reuptake (setting [1]) of 0.43 µM. The inhibition at 1 µM at human μ-opiate receptor was 5%. Also, the inhibition at 10 µM on NA reuptake was 14%.
Take `CN(C)CC1Cc2cc(F)ccc2C1(O)c1cccnc1` (stereo not drawn) [Example 18, 2-dimethylaminomethyl-5-fluoro-1-pyridin-3-yl-indan-1-ol]: the results for the inhibition at 10 µM on 5-HT reuptake (rat synaptosomes) and against NA reuptake were 56% and 29%, respectively. Also, the inhibition at 1 µM at human μ-opiate receptor is -6%.
Turning to `CN(C)CC1=C(c2cccnc2)c2ccccc2OCC1` [Example 26, dimethyl-(5-pyridin-3-yl-2,3-dihydro-benzo[b]oxepin-4-ylmethyl)-amine], the inhibition at 10 µM on 5-HT reuptake (rat synaptosomes) came to 50%; at NA reuptake, 9%. The inhibition at 1 µM on human μ-opiate receptor was 37%.
For `CN(C)CC1CSc2ccccc2C1(O)c1cccnc1` (stereo not drawn) [Example 31, 3-dimethylaminomethyl-4-pyridin-3-yl-thiochroman-4-ol], the results for the inhibition at 10 µM on 5-HT reuptake (rat synaptosomes) and on NA reuptake were -4% and 48%, respectively.
As for `COc1cccc2c1CCC(CN(C)C)C2(O)c1cccnc1` (stereo not drawn) [Example 37, 2-dimethylaminomethyl-5-methoxy-1-pyridin-3-yl-1,2,3,4-tetrahydro-naphthalen-1-ol], the “Inhibition of 5-HT reuptake (% inhibition at 10 μmol./l)” value on 5-HT reuptake (rat synaptosomes) amounted to 19%. Besides, the “μ-Opioid receptor affinity (% inhibition at 1 μmol./l)” value on human μ-opiate receptor is 8%. The “Inhibition of NA reuptake (% inhibition at 10 μmol./l)” value on NA reuptake was 57%.
Turning to `CN(C)CC1=C(c2cccnc2)c2cccc(O)c2CC1` [Example 39, 6-dimethylaminomethyl-5-pyridin-3-yl-7,8-dihydro-naphthalen-1-ol], the Ki is 0.25 µM at 5-HT reuptake and 0.02 µM on human μ-opiate receptor. The inhibition at 10 µM against NA reuptake turned out to be 50%.
